Reference: patent US20140271920A1, “SKIN OINTMENT FORMULATION” (priority 2013, published 2014)

Tested on: person's skin
Experiment: Experimentation with ingredient concentrations in the ointment formulation applied to a person's skin
Assay type: in vivo, human
Conditions: Zinc Oxide amount lesser than 4.70% of the formulation
Text: The ointment formulation includes an occlusive and nourishing ingredient in an amount configured to reduce moisture evaporation from and seal the skin. The specific occlusive and nourishing ingredient in the subject ointment formulation may be Lanolin. Lanolin is additionally selected for its ability to supply the skin with a majority of the 23 proteinogenic, i.e., protein-building, amino acids, which combine into peptide chains to form the building blocks of a vast array of proteins. In an exemplary 126.0 ml volume sample of the ointment formulation, the specific volume of the Lanolin ingredient was 103.53 ml, or 82.17%. Although Lanolin made up 82.17% of the exemplary sample, the allowable range of the Lanolin ingredient in the ointment formulation is approximately 74-85%.
The ointment formulation having the specific disclosed volume of Lanolin is for a moderate to severe condition of the skin. Although the amount of Lanolin may be increased for more severe conditions, the disclosed specific concentration of 82.17% is near the maximum that may be used while maintaining the necessary amounts of the other ingredients. Accordingly, as the volume of Lanolin is adjusted for severity of the particular skin condition, the amounts of other ingredients to be described with specificity below would have to be adjusted accordingly. […]

## [O]=[Zn] [Zinc Oxide]
  effectiveness: has not shown to be effective
